For experiment [1], the system named is MCF7. Nature of the experiment: Cytotoxicity against human MCF7 cells after 72 hrs by crystal violet staining. As to conditions: MCF7, 72 h. The experiment is classed as functional, cell-based.
For experiment [2], the system named is MDA-MB-231. As to the kind of experiment: Cytotoxicity against human MDA-MB-231 cells after 72 hrs by crystal violet staining. The experiment is classed as functional, cell-based. As to conditions: MDA-MB-231, 72 h.
In experiment [3] the test system is HT-29. Nature of the experiment: Cytotoxicity against human HT-29 cells after 72 hrs by crystal violet staining. The class given is functional, cell-based. Conditions: HT-29, 72 h.
Experiment [4] deals with Mus musculus. Nature of the experiment: Antiinflammatory activity in Kunming mouse assessed as inhibition of xylene-induced ear edema at 4 mg/kg, ip for 5 days relative to control. The experiment is classed as functional. Conditions: 120 h, route intraperitoneal.
Experiment [5] has as its system Mus musculus. As to the kind of experiment: Antiinflammatory activity in Kunming mouse assessed as inhibition of xylene-induced ear edema at 30 mg/kg, ip for 5 days relative to control. As to conditions: 120 h, route intraperitoneal. The experiment is classed as functional.
Experiment [6] has as its target T1, Prostaglandin G/H synthase 1 (Ovis aries) (UniProt P05979).
T1 sequence (whole entry): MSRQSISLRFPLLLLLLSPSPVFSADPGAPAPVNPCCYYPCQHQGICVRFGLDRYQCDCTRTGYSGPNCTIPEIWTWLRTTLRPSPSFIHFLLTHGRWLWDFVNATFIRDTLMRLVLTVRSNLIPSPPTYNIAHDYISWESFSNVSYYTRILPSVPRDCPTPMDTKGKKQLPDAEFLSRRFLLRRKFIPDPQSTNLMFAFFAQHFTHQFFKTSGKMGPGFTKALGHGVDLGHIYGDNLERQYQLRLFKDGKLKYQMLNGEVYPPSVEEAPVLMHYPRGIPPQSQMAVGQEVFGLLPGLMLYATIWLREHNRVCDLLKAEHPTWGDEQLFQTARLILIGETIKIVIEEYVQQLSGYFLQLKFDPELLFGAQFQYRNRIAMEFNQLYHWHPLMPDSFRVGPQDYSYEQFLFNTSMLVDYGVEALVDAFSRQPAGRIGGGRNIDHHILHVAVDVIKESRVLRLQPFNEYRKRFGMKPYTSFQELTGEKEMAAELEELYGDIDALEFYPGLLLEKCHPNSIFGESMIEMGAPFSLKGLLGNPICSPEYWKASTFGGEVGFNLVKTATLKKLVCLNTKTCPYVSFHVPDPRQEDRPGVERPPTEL
As to the kind of experiment: Inhibition of isolated ovine COX-1 at 10 uM by ELISA. In general terms: ELISA stands for enzyme-linked immunosorbent assay.

Experiment [7] has as its system MCF7. As to the kind of experiment: Ratio of 5-fluorouracil IC50 to compound IC50 for human MCF7 cells. The class given is functional.
The test system of experiment [8] is MDA-MB-231. Nature of the experiment: Ratio of 5-fluorouracil IC50 to compound IC50 for human MDA-MB-231 cells. The class given is functional.
The subject of experiment [9] is HT-29. Nature of the experiment: Ratio of 5-fluorouracil IC50 to compound IC50 for human HT-29 cells. The class given is functional.
Experiment [10] deals with MCF7. As to the kind of experiment: Ratio of loratadine IC50 to compound IC50 for human MCF7 cells. The class given is functional.
Experiment [11] has as its system MDA-MB-231. Nature of the experiment: Ratio of loratadine IC50 to compound IC50 for human MDA-MB-231 cells. The class given is functional.
Experiment [12] concerns HT-29. Nature of the experiment: Ratio of loratadine IC50 to compound IC50 for human HT-29 cells. The experiment is classed as functional.
Experiment [13] concerns MCF7. Nature of the experiment: Cytotoxicity against human MCF7 cells at 0.63 to 10 uM up to 140 hrs by crystal violet staining. The experiment is classed as functional, cell-based.
For experiment [14], the system named is HT-29. As to the kind of experiment: Cytotoxicity against human HT-29 cells at 0.63 to 10 uM up to 140 hrs by crystal violet staining. The class given is functional, cell-based.

Active and inactive are the calls of the source. The rule behind the calls is not given here.

As for `CCCCN/C(=N/C#N)N1CCC(=C2c3ccc(Cl)cc3CCc3cccnc32)CC1`, the IC50 (usually the midpoint of a concentration-inhibition curve) in the experiment on MCF7 [1] was 3.9 µM; with MDA-MB-231 [2], 3.1 µM; with HT-29 [3] it was 4 µM. Further, the inhibition in vivo (in general, how much of the control response was suppressed) at 4 mg/kg with Mus musculus [4] was determined as 17.4%.
The like results for `N#C/N=C(/NCCc1ccccc1)N1CCC(=C2c3ccc(Cl)cc3CCc3cccnc32)CC1` were, in that order, 2.3 µM, 2.6 µM, 3.2 µM and 13%.
As for `CCCCCN/C(=N/C#N)N1CCC(=C2c3ccc(Cl)cc3CCc3cccnc32)CC1`, the figures for the IC50 in the experiment with MCF7 [1], in the experiment with MDA-MB-231 [2] and in the experiment on HT-29 [3] were 3.5 µM, 1.7 µM and 4.4 µM, respectively. Moreover, the inhibition in vivo at 4 mg/kg with Mus musculus [4] worked out at 13%.
In the case of `CC(C)Cc1ccc(C(C)C(=O)O)cc1` (centres undefined) [IBUPROFEN], in the experiment with Mus musculus [4], the inhibition in vivo at 4 mg/kg was determined as 8.22%. Also, in the experiment on Mus musculus [5], the inhibition in vivo at 30 mg/kg amounted to 39.1%.
`N#C/N=C(/NC1CCCCC1)N1CCC(=C2c3ccc(Cl)cc3CCc3cccnc32)CC1`: the results for the 50% inhibitory concentration (IC50) with MCF7 [1], with MDA-MB-231 [2] and in the experiment with HT-29 [3] were 3.9 µM, 1.9 µM and 4 µM, respectively. Moreover, in the experiment with Mus musculus [4], the inhibition in vivo at 4 mg/kg amounted to 17.4%.
For `CC(N/C(=N/C#N)N1CCC(=C2c3ccc(Cl)cc3CCc3cccnc32)CC1)c1ccccc1` (centres undefined), the concentration for half-maximal inhibition (IC50) stood at 4 µM with MCF7 [1], 6.9 µM in the experiment on MDA-MB-231 [2] and 3.7 µM with HT-29 [3]. Besides, the inhibition in vivo at 4 mg/kg in the experiment on Mus musculus [4] stood at 26.1%. Besides, in [6], the inhibition (in general, the share of the control response that was lost under treatment) worked out at 4.9%.
With `COc1ccc(CCN/C(=N/C#N)N2CCC(=C3c4ccc(Cl)cc4CCc4cccnc43)CC2)cc1OC`, the half-inhibitory concentration (IC50) with MCF7 [1] was determined as 7.1 µM; in the experiment on MDA-MB-231 [2] it was 18.2 µM; in the experiment with HT-29 [3] it was 5.7 µM. Moreover, in the experiment on Mus musculus [4], the inhibition in vivo at 4 mg/kg was 21.7%.
`O=c1[nH]cc(F)c(=O)[nH]1` [FLUOROURACIL] had an IC50 with MCF7 [1] of 4.7 µM.
For the compound `N#C/N=C(/NCCc1ccc2c(c1)OCO2)N1CCC(=C2c3ccc(Cl)cc3CCc3cccnc32)CC1`, the IC50 was 8 µM in the experiment on MCF7 [1], 12.9 µM in the experiment on MDA-MB-231 [2] and 6.5 µM in the experiment with HT-29 [3]. Further, in the experiment on Mus musculus [4], the inhibition in vivo at 4 mg/kg worked out at 13%.
Regarding `CCCCCCCCN/C(=N/C#N)N1CCC(=C2c3ccc(Cl)cc3CCc3cccnc32)CC1`, the figures for the IC50 in the experiment on MCF7 [1], with MDA-MB-231 [2] and in the experiment on HT-29 [3] were 1.4 µM, 4.1 µM and 2 µM, respectively. Besides, the “Ratio IC50” value in the experiment with MCF7 [7], in the experiment on MDA-MB-231 [8], in the experiment with HT-29 [9], with MCF7 [10], in the experiment on MDA-MB-231 [11] and in the experiment on HT-29 [12] was 2 each time. The outcome in the experiment with MCF7 [13] and with HT-29 [14] was Active. In addition, in the experiment on Mus musculus [4], the inhibition in vivo at 4 mg/kg worked out at 15.6%.
As for `N#C/N=C(/NCc1ccccc1)N1CCC(=C2c3ccc(Cl)cc3CCc3cccnc32)CC1`, the results for the IC50 with MCF7 [1], in the experiment on MDA-MB-231 [2] and in the experiment on HT-29 [3] were 2.9 µM, 2.7 µM and 3.1 µM, respectively. Moreover, the inhibition in vivo at 4 mg/kg with Mus musculus [4] was 13%.
For `COc1ccc2c(c1)c(CC(=O)O)c(C)n2C(=O)c1ccc(Cl)cc1`, in experiment [6], the inhibition worked out at 56%.

These data come from ChEMBL document CHEMBL2086253, “Synthesis and biological evaluation of cyanoguanidine derivatives of loratadine” (Bioorg Med Chem Lett, 2012).
